In ChEMBL document CHEMBL1201862, “PubChem BioAssay data set” (2004):
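1) Cells in 96-well plates. 2) Compound, 48 h, 5 concentrations. 3) Linear interpolation between surrounding doses. 4) Unreached endpoint = highest concentration. GI50 is the concentration that inhibits growth by half.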 The source made the active and inactive calls. Rule as the data show it: active = GI50 up to about 1.1 µM and inactive = higher.

Experiments:
Assay in all cases: DTP human tumour cell line panel, 48 h
[1] = tested on: UO-31
[2] = tested on: OVCAR-4
[3] = tested on: UACC-62
[4] = tested on: OVCAR-8
[5] = tested on: HT-29
[6] = tested on: UACC-257
[7] = tested on: RXF 393
[8] = tested on: CCRF-CEM
[9] = tested on: A498
[10] = tested on: KM-20L2
[11] = tested on: NCI-H522
[12] = tested on: SK-MEL-2
[13] = tested on: XF498
[14] = tested on: DMS-114
[15] = tested on: SK-OV-3
[16] = tested on: MOLT-4
[17] = tested on: 786-0
[18] = tested on: SF-295
[19] = tested on: HOP-92
[20] = tested on: IGROV-1
[21] = tested on: M14
[22] = tested on: Malme-3M
[23] = tested on: NCI-H23
[24] = tested on: HCC 2998
[25] = tested on: NCI-H460
[26] = tested on: HOP-18
[27] = tested on: COLO 205
[28] = tested on: SK-MEL-28
[29] = tested on: M19-MEL
[30] = tested on: SN12C
[31] = tested on: RPMI-8226
[32] = tested on: U-251
[33] = tested on: SW-620
[34] = tested on: HL-60
[35] = tested on: HCT-116
[36] = tested on: EKVX
[37] = tested on: HCT-15
[38] = tested on: OVCAR-3
[39] = tested on: DLD-1
[40] = tested on: SNB-78
[41] = tested on: K562
[42] = tested on: SNB-19
[43] = tested on: HOP-62
[44] = tested on: LOX IMVI
[45] = tested on: CAKI-1
[46] = tested on: SF-268
[47] = tested on: LXFL 529
[48] = tested on: SF-539
[49] = tested on: TK-10
[50] = tested on: NCI-H226
[51] = tested on: SR
[52] = tested on: ACHN
[53] = tested on: OVCAR-5
[54] = tested on: A549
[55] = tested on: SNB-75
[56] = tested on: KM12
[57] = tested on: SK-MEL-5
[58] = tested on: DMS-273

Structure (SMILES): CCc1cccc(C)c1NC(=O)C(=O)Cc1nc2ccccc2o1
- GI50 [1]: > 100 µM (inactive)
- GI50 [2]: > 100 µM (inactive)
- GI50 [3]: > 100 µM (inactive)
- GI50 [4]: > 100 µM (inactive)
- GI50 [5]: > 100 µM (inactive)
- GI50 [6]: > 100 µM (inactive)
- GI50 [7]: > 100 µM (inactive)
- GI50 [8]: > 100 µM (inactive)
- GI50 [9]: > 100 µM (inactive)
- GI50 [10]: > 100 µM (inactive)
- GI50 [11]: > 100 µM (inactive)
- GI50 [12]: > 100 µM (inactive)
- GI50 [13]: > 100 µM (inactive)
- GI50 [14]: > 100 µM (inactive)
- GI50 [15]: > 100 µM (inactive)
- GI50 [16]: > 100 µM (inactive)
- GI50 [17]: > 100 µM (inactive)
- GI50 [18]: > 100 µM (inactive)
- GI50 [19]: > 100 µM (inactive)
- GI50 [20]: > 100 µM (inactive)
- GI50 [21]: > 100 µM (inactive)
- GI50 [22]: > 100 µM (inactive)
- GI50 [23]: > 100 µM (inactive)
- GI50 [24]: > 100 µM (inactive)
- GI50 [25]: > 100 µM (inactive)
- GI50 [26]: > 100 µM (inactive)
- GI50 [27]: > 100 µM (inactive)
- GI50 [28]: > 100 µM (inactive)
- GI50 [29]: > 100 µM (inactive)
- GI50 [30]: > 100 µM (inactive)
- GI50 [31]: > 100 µM (inactive)
- GI50 [32]: > 100 µM (inactive)
- GI50 [33]: > 100 µM (inactive)
- GI50 [34]: > 100 µM (inactive)
- GI50 [35]: > 100 µM (inactive)
- GI50 [36]: > 100 µM (inactive)
- GI50 [37]: > 100 µM
- GI50 [38]: > 100 µM (inactive)
- GI50 [39]: > 100 µM (inactive)
- GI50 [40]: > 100 µM (inactive)
- GI50 [41]: > 100 µM (inactive)
- GI50 [42]: > 100 µM (inactive)
- GI50 [43]: > 100 µM (inactive)
- GI50 [44]: > 100 µM (inactive)
- GI50 [45]: > 100 µM (inactive)
- GI50 [46]: > 100 µM (inactive)
- GI50 [47]: > 100 µM (inactive)
- GI50 [48]: > 100 µM (inactive)
- GI50 [49]: > 100 µM (inactive)
- GI50 [50]: > 100 µM (inactive)
- GI50 [51]: > 100 µM (inactive)
- GI50 [52]: > 100 µM (inactive)
- GI50 [53]: > 100 µM (inactive)

Structure (SMILES): Nc1ncnc2c1ncn2C1OC(CSCc2ccc(Cl)cc2)C(O)C1O (configuration not stated)
- GI50 [54]: 43.1 µM (inactive)
- GI50 [1]: 18.9 µM (inactive)
- GI50 [2]: 35.6 µM (inactive)
- GI50 [3]: 46.9 µM (inactive)
- GI50 [4]: 42.7 µM (inactive)
- GI50 [5]: 22.1 µM (inactive)
- GI50 [6]: 31.3 µM (inactive)
- GI50 [7]: 21.2 µM (inactive)
- GI50 [55]: 18.3 µM (inactive)
- GI50 [8]: 31.3 µM (inactive)
- GI50 [9]: 23.8 µM (inactive)
- GI50 [10]: 9.55 µM (inactive)
- GI50 [12]: 25.5 µM (inactive)
- GI50 [13]: 22.8 µM (inactive)
- GI50 [14]: 21.9 µM (inactive)
- GI50 [15]: > 100 µM (inactive)
- GI50 [16]: 10.7 µM (inactive)
- GI50 [17]: 34.1 µM (inactive)
- GI50 [18]: 50.9 µM (inactive)
- GI50 [56]: 24.2 µM (inactive)
- GI50 [19]: 4.18 µM (inactive)
- GI50 [20]: 89.3 µM (inactive)
- GI50 [21]: 17.1 µM (inactive)
- GI50 [22]: 56.9 µM (inactive)
- GI50 [23]: 24.2 µM (inactive)
- GI50 [24]: 44.9 µM (inactive)
- GI50 [25]: > 100 µM (inactive)
- GI50 [26]: 42 µM (inactive)
- GI50 [57]: 33.8 µM (inactive)
- GI50 [27]: 40.4 µM (inactive)
- GI50 [29]: 33.7 µM (inactive)
- GI50 [30]: 45.7 µM (inactive)
- GI50 [31]: 21.8 µM (inactive)
- GI50 [32]: 66.2 µM (inactive)
- GI50 [33]: 31.8 µM (inactive)
- GI50 [34]: 23.8 µM (inactive)
- GI50 [35]: 19.8 µM (inactive)
- GI50 [36]: 81.7 µM (inactive)
- GI50 [37]: 12 µM
- GI50 [38]: 32.1 µM (inactive)
- GI50 [39]: 14.6 µM (inactive)
- GI50 [40]: 68.9 µM (inactive)
- GI50 [41]: 30 µM (inactive)
- GI50 [42]: 35.9 µM (inactive)
- GI50 [43]: 17 µM (inactive)
- GI50 [44]: 37.3 µM (inactive)
- GI50 [45]: 21.5 µM (inactive)
- GI50 [46]: 40.1 µM (inactive)
- GI50 [47]: 17.2 µM (inactive)
- GI50 [48]: 29.4 µM (inactive)
- GI50 [49]: 55 µM (inactive)
- GI50 [58]: 30.1 µM (inactive)
- GI50 [52]: 34.9 µM (inactive)
- GI50 [53]: > 100 µM (inactive)

Structure (SMILES): Clc1cccc(-c2nnc(-c3nn(-c4ccccc4)c4nc5ccccc5nc34)o2)c1
- GI50 [54]: > 100 µM (inactive)
- GI50 [1]: > 100 µM (inactive)
- GI50 [2]: > 100 µM (inactive)
- GI50 [3]: > 100 µM (inactive)
- GI50 [4]: > 100 µM (inactive)
- GI50 [5]: > 100 µM (inactive)
- GI50 [6]: > 100 µM (inactive)
- GI50 [7]: 56.2 µM (inactive)
- GI50 [55]: 36.6 µM (inactive)
- GI50 [8]: > 100 µM (inactive)
- GI50 [10]: > 100 µM (inactive)
- GI50 [11]: > 100 µM (inactive)
- GI50 [12]: > 100 µM (inactive)
- GI50 [13]: 43.8 µM (inactive)
- GI50 [14]: > 100 µM (inactive)
- GI50 [15]: > 100 µM (inactive)
- GI50 [16]: > 100 µM (inactive)
- GI50 [17]: > 100 µM (inactive)
- GI50 [18]: > 100 µM (inactive)
- GI50 [56]: > 100 µM (inactive)
- GI50 [20]: > 100 µM (inactive)
- GI50 [21]: > 100 µM (inactive)
- GI50 [22]: > 100 µM (inactive)
- GI50 [23]: > 100 µM (inactive)
- GI50 [24]: > 100 µM (inactive)
- GI50 [25]: > 100 µM (inactive)
- GI50 [26]: > 100 µM (inactive)
- GI50 [57]: 77.4 µM (inactive)
- GI50 [27]: > 100 µM (inactive)
- GI50 [28]: > 100 µM (inactive)
- GI50 [29]: > 100 µM (inactive)
- GI50 [30]: > 100 µM (inactive)
- GI50 [31]: > 100 µM (inactive)
- GI50 [32]: > 100 µM (inactive)
- GI50 [33]: > 100 µM (inactive)
- GI50 [34]: > 100 µM (inactive)
- GI50 [35]: > 100 µM (inactive)
- GI50 [36]: > 100 µM (inactive)
- GI50 [37]: > 100 µM
- GI50 [38]: > 100 µM (inactive)
- GI50 [39]: > 100 µM (inactive)
- GI50 [40]: > 100 µM (inactive)
- GI50 [41]: > 100 µM (inactive)
- GI50 [42]: > 100 µM (inactive)
- GI50 [43]: > 100 µM (inactive)
- GI50 [44]: > 100 µM (inactive)
- GI50 [45]: > 100 µM (inactive)
- GI50 [46]: > 100 µM (inactive)
- GI50 [47]: 78.9 µM (inactive)
- GI50 [48]: > 100 µM (inactive)
- GI50 [49]: > 100 µM (inactive)
- GI50 [50]: > 100 µM (inactive)
- GI50 [58]: > 100 µM (inactive)
- GI50 [52]: > 100 µM (inactive)
- GI50 [53]: > 100 µM (inactive)

Structure (SMILES): CCOC(=O)C1(C(=O)OCC)OC(=O)NC2=C1CCCC2
- GI50 [54]: > 100 µM (inactive)
- GI50 [1]: > 100 µM (inactive)
- GI50 [4]: > 100 µM (inactive)
- GI50 [5]: > 100 µM (inactive)
- GI50 [6]: > 100 µM (inactive)
- GI50 [7]: > 100 µM (inactive)
- GI50 [55]: > 100 µM (inactive)
- GI50 [8]: > 100 µM (inactive)
- GI50 [9]: > 100 µM (inactive)
- GI50 [10]: > 100 µM (inactive)
- GI50 [11]: > 100 µM (inactive)
- GI50 [12]: > 100 µM (inactive)
- GI50 [13]: > 100 µM (inactive)
- GI50 [14]: > 100 µM (inactive)
- GI50 [15]: > 100 µM (inactive)
- GI50 [16]: > 100 µM (inactive)
- GI50 [17]: > 100 µM (inactive)
- GI50 [18]: > 100 µM (inactive)
- GI50 [56]: > 100 µM (inactive)
- GI50 [19]: > 100 µM (inactive)
- GI50 [20]: > 100 µM (inactive)
- GI50 [22]: > 100 µM (inactive)
- GI50 [23]: > 100 µM (inactive)
- GI50 [24]: > 100 µM (inactive)
- GI50 [25]: > 100 µM (inactive)
- GI50 [26]: 19.5 µM (inactive)
- GI50 [57]: > 100 µM (inactive)
- GI50 [27]: > 100 µM (inactive)
- GI50 [28]: > 100 µM (inactive)
- GI50 [29]: > 100 µM (inactive)
- GI50 [31]: > 100 µM (inactive)
- GI50 [32]: > 100 µM (inactive)
- GI50 [33]: > 100 µM (inactive)
- GI50 [34]: > 100 µM (inactive)
- GI50 [35]: > 100 µM (inactive)
- GI50 [36]: > 100 µM (inactive)
- GI50 [38]: > 100 µM (inactive)
- GI50 [39]: > 100 µM (inactive)
- GI50 [40]: > 100 µM (inactive)
- GI50 [41]: > 100 µM (inactive)
- GI50 [42]: > 100 µM (inactive)
- GI50 [43]: > 100 µM (inactive)
- GI50 [44]: > 100 µM (inactive)
- GI50 [46]: > 100 µM (inactive)
- GI50 [47]: > 100 µM (inactive)
- GI50 [48]: > 100 µM (inactive)
- GI50 [49]: > 100 µM (inactive)
- GI50 [58]: > 100 µM (inactive)
- GI50 [52]: > 100 µM (inactive)
- GI50 [53]: > 100 µM (inactive)
